Measured values reported in patent EP0515927A2, “Pradimicin antibiotics” (priority 1991, dated 1992).
Values after ≈ are worked out from the molar mass of the structure shown. Like-named read-outs stand apart in the source and are kept apart here.

How the values were obtained:
[1] = tested on: herpes simplex virus type I (HSV-1); details: 72 h
[2] = tested on: Vero cells; details: HSV-Vero cell, (TD50: 50% cytotoxicity without virus)
[3] = tested on: C. albicans A9540; test: In vivo efficacy against C. albicans A9540 systemic infection in mice; parameters: species or system male ICR mice; details: single i.v. injection immediately after i.v. challenge; survivors on 20th day
Procedure: The in vivo efficacy of pradimicins was evaluated against C. albicans A9540 systemic infection in male ICR mice (20-24 g body weight). The pathogen was cultured for 18 hours at 28°C in YGP medium (yeast extract 0.2%, glucose 1.5%, peptone 0.5%, K2HP04 0.05% and MgS04 0.05%) and resuspended in saline. Mice were challenged intravenously with 10 times lethal dose of the pathogen. Immediately after the fungal challenge, groups of 5 mice received a single intravenous injection of pradimicin S or FS or N-methyl pradimicin S at various dose levels. Amphotericin B and Fluconazol were used as positive controls. The median protective dose (PDso) was determined from the number of surviving mice recorded on the 20th day after the fungal infection.

[4] = tested on: various fungal organisms; test: In vitro antifungal activity, agar dilution method, Yeast Morphology agar with 1/15 M phosphate buffer (pH 7.0); format: cell-based; details: summary in words (Table 7 is an image)
Procedure: The in vitro antifungal activity of pradimicins was determined by a conventional agar dilution method using Yeast Morphology agar containing 1/15 M phosphate buffer (pH 7.0).

[5] = tested on: influenza virus A; test: In vitro antiviral activity, influenza virus A-MDCK cell system, dye-uptake assay (inhibition of viral cytopathic effect); format: cell-based; details: 50% inhibition of cytopathic effect, 72 hours
[6] = Acute toxicity in mice after single i.v. administration; format: in vivo
Procedure: The acute toxicity of pradimicins S and FS and N-methyl pradimicin S was determined in mice after single administration (i.v.).

[7] = tested on: Madin Darby canine kidney (MDCK) cell; details: Influenza virus-MDCK cell, (TD50: 50% cytotoxicity without virus)
[8] = mouse, in vivo, iv, read-out: LD50

| Molecule | ID50 [1] | ID50 [2] | PD50 mg/kg (i.v.) [3] | in vitro antifungal activity [4] | ID50 [5] | LD50 [6, 8] | ID50 [7] | LD50 [6] |
| --- | --- | --- | --- | --- | --- | --- | --- | --- |
| Nc1nc2c(ncn2COCCO)c(=O)[nH]1 [Acyclovir, reference compound] | 0.09 µg/mL (≈ 0.4 µM) | >100 µg/mL | – | – | – | – | – | – |
| C[C@@H]1[C@H](O)[C@@H](C)/C=C/C=C/C=C/C=C/C=C/C=C/C=C/[C@H](O[C@@H]2O[C@H](C)[C@@H](O)[C@H](N)[C@@H]2O)C[C@@H]2O[C@](O)(C[C@@H](O)C[C@@H](O)[C@H](O)CC[C@@H](O)C[C@@H](O)CC(=O)O[C@H]1C)C[C@H](O)[C@H]2C(=O)O [Amphotericin B, reference compound] | – | – | 0.31 mg/kg | – | – | – | – | – |
| OC(Cn1cncn1)(Cn1cncn1)c1ccc(F)cc1F [Fluconazol, reference compound] | – | – | >50 mg/kg | – | – | – | – | – |
| CN[C@@H]1[C@H](O[C@@H]2O[C@H](CO)[C@@H](O)[C@H](OS(=O)(=O)O)[C@H]2O)[C@@H](O)[C@H](O[C@H]2c3cc(C)c(C(=O)N[C@H](CO)C(=O)O)c(O)c3-c3c(cc4c(c3O)C(=O)c3cc(OC)cc(O)c3C4=O)[C@@H]2O)O[C@@H]1C [Pradimicin FS, pradimicin FS] | >100 µg/mL | >100 µg/mL | 18 mg/kg | activity against various fungal organisms | 82 µg/mL (≈ 84.8 µM) | 210 mg/kg | >100 µg/mL | – |
| CN[C@@H]1[C@H](O[C@@H]2O[C@H](CO)[C@@H](O)[C@H](OS(=O)(=O)O)[C@H]2O)[C@@H](O)[C@H](O[C@H]2c3cc(C)c(C(=O)N[C@H](C)C(=O)O)c(O)c3-c3c(cc4c(c3O)C(=O)c3cc(OC)cc(O)c3C4=O)[C@@H]2O)O[C@@H]1C [Pradimicin S, pradimicin S] | >100 µg/mL | >100 µg/mL | 35 mg/kg | activity against various fungal organisms | 22 µg/mL (≈ 23.1 µM) | 244 mg/kg | >100 µg/mL | – |
| NC(=O)c1ncn([C@@H]2O[C@H](CO)[C@@H](O)[C@H]2O)n1 [Ribavirin, reference compound] | – | – | – | – | 9.5 µg/mL (≈ 38.9 µM) | – | – | – |
| N-methyl pradimicin S [BMY-29273] | – | – | 47 mg/kg | activity against various fungal organisms | – | – | – | ≥ 424 mg/kg |
